Assay results from article PMC7997032, “Organic synthesis and anti-influenza A virus activity of cyclobakuchiols A, B, C, and D” (PLoS ONE, 2021).
Values joined by “and” are separate entries in the source; they are usually repeats but may differ in a detail not shown here. Identical values can stand only once.

Tests used:
A/WSN/33 virus [1] = assay: Influenza A viral growth assay (viral titer of culture media); assay type: cell-based, influenza A H1N1 virus; conditions: A/WSN/33 (WSN), 12.5uM, average of #1-3 exp (n=9)
A/PR/8/34 virus [2] = assay: Immunofluorescence staining of viral NP in influenza A virus-infected MDCK cells; conditions: for NP/DAPI (%) ave: average of 9 wells
Experimental: MDCK cells were seeded on a 96-well plate at 1 × 10^4 cells/well. […] Each mixture was added to the cells at 37°C in the presence of 5% CO2. […] After influenza A viral infection for 24 h, the cells were fixed with 4% paraformaldehyde in phosphate-buffered saline (PBS) for 30 min at 4°C and subsequently permeabilized by the addition of 0.3% Triton X-100 for 20 min at 25°C. A mouse primary antibody was used to detect the NP of A/PR/8/34 or A/WSN/33 viruses (FluA-NP 4F1; SouthernBiotech, AL, USA). Alexa Fluor488-conjugated goat anti-mouse IgG (H + L) antibody (Thermo Fisher Scientific) was used as the secondary antibody. Cell nuclei were then stained using diamidino-2-phenylindole (DAPI) (Thermo Fisher Scientific). Wells were photographed using a fluorescence microscope (BIOREVO BZ-X700; Keyence, Osaka, Japan). The proportion of influenza A NP-positive cells per DAPI-positive cells was calculated based on measurements recorded using BZ-X Analyzer software (Keyence).

A/PR/8/34 virus [3] = assay: RT-qPCR of viral mRNAs (NP, NS1, PA, PB1, PB2, M2) in infected MDCK cells; assay type: cell-based, influenza A H1N1 virus
A/WSN/33 virus [4] = assay: Immunofluorescence staining of viral NP in influenza A virus-infected MDCK cells; conditions: WSN
[5] = system: NAD(P)H quinone oxidoreductase 1 (Nqo1); assay: RT-qPCR of Nqo1 mRNA in MDCK cells with or without A/PR/8/34 virus; assay type: cell-based, canine; conditions: for NQO1 Canis lupus mRNA, ave / NQO1 Canis lupus mRNA, individual replicates: 12.5uM, MDCK, relative to virus - DMSO; for NQO1 Canis lupus mRNA, ave: ave of #1-3 exp; for NQO1 Canis lupus mRNA, individual replicates: replicates 1-3 of #1, #2, #3 exp, listed as Cyclobakuchiol B
A/PR/8/34 virus [6] = assay: Influenza A viral growth assay (viral titer of culture media); assay type: cell-based, influenza A H1N1 virus; parameters: viral titer of culture media, individual replicate / viral titer of culture media, ave: unit not given here; conditions: A/PR/8/34 (PR8), 12.5uM, average of #1-3 exp (n=9)
[7] = system: canine interferon-β (Ifn-β); assay: RT-qPCR of Ifn-β mRNA in MDCK cells with or without A/PR/8/34 virus; assay type: cell-based; conditions: 12.5uM, relative to virus - DMSO; for MDCK IFN-b mRNA, ave: ave of #1-3 exp; for MDCK IFN-b mRNA, individual replicates: replicates 1-3 of #1, #2, #3 exp, listed as Cyclobakuchiol B
A/PR/8/34 virus [8] = assay type: cell-based; conditions: 12.5 μM, 24h WB
Nrf2 = Nrf2 reporter assay (dual luciferase system) in MDCK cells; assay type: cell-based, canine
Experimental: An Nrf2 reporter assay based on the dual luciferase system was performed as previously described. The plasmid pNQO1-ARE (antioxidant response element)-Fluc, provided by Yamamoto M., expressed a Firefly luciferase gene driven by Nrf2 activation, while the plasmid pRL-TK-Rluc vector (Promega, CA, USA) expressed a Renilla luciferase gene driven by the herpes simplex viral thymidine kinase promoter as an internal control. MDCK cells were seeded in a 24-well plate at 1 × 10^5 cells/well and transfected with pNQO1-ARE-luc (0.25 μg) and pRL-TK-Rluc (0.25 μg). At 24 h post-transfection, the cells were treated with 12.5 μM cyclobakuchiols A–D in the infection medium at 37°C under 5% CO2. DMSO (0.125%) and 12.5 μM 1 were used as negative and positive controls, respectively. Total RNA was extracted from the MDCK cell lysates after 24 h of incubation. The levels of Firefly and Renilla luciferase mRNAs were analyzed by RT-qPCR and normalized to that of β-actin mRNA.

[9] = MDCK cells, PR8 virus, relative to DMSO (about 1), ave of #1-3 exp (9 values)
[10] = MDCK cells, PR8 virus, relative to DMSO, replicates 1-3 of #1, #2, #3 exp, listed as Cyclobakuchiol B

## C=C[C@]1(C)CCC(C(=C)C)C(c2ccc(O)cc2)C1 (stereo in doubt) [cyclobakuchiol B]
A/WSN/33 virus [1]; 12h
  viral titer of culture media, ave: 12633.3
A/WSN/33 virus [1]; 24h
  viral titer of culture media, ave: 25455556
A/WSN/33 virus [1]; 48h
  viral titer of culture media, ave: 275666667
A/WSN/33 virus [1]; 72h
  viral titer of culture media, ave: 208055556
A/PR/8/34 virus [2]; A/PR/8/34, 3.1 μM, 24 h, Fig 4B
  percentage of influenza A NP-positive cells relative to DMSO: significantly reduced
A/PR/8/34 virus [2]; A/PR/8/34, 3.13 uM
  NP/DAPI (%) ave: 5.089%
A/PR/8/34 virus [2]; A/PR/8/34, 6.25 uM
  NP/DAPI (%) ave: 1.925%
A/PR/8/34 virus [2]; A/PR/8/34, 12.5 uM
  NP/DAPI (%) ave: 1.075%
A/PR/8/34 virus [2]; A/PR/8/34, 25 uM
  NP/DAPI (%) ave: 0.927%
A/PR/8/34 virus [2]; Influenza A virus, PR/8, MDCK, read-out: half maximal (50%) inhibitory concentration (IC50)
  IC50: 2.4 ± 0.6 µM
A/PR/8/34 virus [3]; MDCK PR8, NP mRNA, relative (DMSO about 1), average of #1-3 exp (n=9)
  PR8 NP gene expression qPCR, ave: 0.03219
A/PR/8/34 virus [3]; MDCK PR8, NP mRNA, relative (DMSO about 1), replicates of #1-3 exp, listed as Cyclobakuchiol B
  PR8 NP gene expression qPCR, individual replicate: 0.01121 and 0.02587 and 0.02406 and 0.03207 and 0.05973 and 0.04959 and 0.06567 and 0.01197 and 0.009584
A/PR/8/34 virus [3]; MDCK PR8, NS1 mRNA, relative (DMSO about 1), average of #1-3 exp (n=9)
  PR8 NS1 gene expression qPCR, ave: 0.02013
A/PR/8/34 virus [3]; MDCK PR8, NS1 mRNA, relative (DMSO about 1), replicates of #1-3 exp, listed as Cyclobakuchiol B
  PR8 NS1 gene expression qPCR, individual replicate: 0.008731 and 0.02017 and 0.01871 and 0.02102 and 0.03896 and 0.02064 and 0.02879 and 0.01388 and 0.01026
A/PR/8/34 virus [3]; MDCK PR8, PA mRNA, relative (DMSO about 1), average of #1-3 exp (n=9)
  PR8 PA gene expression qPCR, ave: 0.02293
A/PR/8/34 virus [3]; MDCK PR8, PA mRNA, relative (DMSO about 1), replicates of #1-3 exp, listed as Cyclobakuchiol B
  PR8 PA gene expression qPCR, individual replicate: 0.01293 and 0.01727 and 0.01489 and 0.01881 and 0.04016 and 0.03375 and 0.04497 and 0.01194 and 0.01167
A/PR/8/34 virus [3]; [9]
  PR8 M2 gene expression qPCR, ave: 0.0246
  PR8 PB1 gene expression qPCR, ave: 0.01874
  PR8 PB2 gene expression qPCR, ave: 0.02588
A/PR/8/34 virus [3]; [10]
  PR8 M2 gene expression qPCR, individual replicates: 0.01123 and 0.02732 and 0.01583 and 0.02218 and 0.04353 and 0.0372 and 0.04279 and 0.01139 and 0.009915
  PR8 PB1 gene expression qPCR, individual replicates: 0.01046 and 0.01271 and 0.006702 and 0.01001 and 0.03897 and 0.03125 and 0.03696 and 0.01163 and 0.009984
  PR8 PB2 gene expression qPCR, individual replicates: 0.01333 and 0.02659 and 0.01745 and 0.02138 and 0.03944 and 0.03441 and 0.05711 and 0.01315 and 0.01011
A/WSN/33 virus [4]; 3.13uM, ave of 9 values (3 exp)
  NP/DAPI (%) ave: 30.5534%
A/WSN/33 virus [4]; 6.25uM, ave of 9 values (3 exp)
  NP/DAPI (%) ave: 28.157%
A/WSN/33 virus [4]; 12.5uM, ave of 9 values (3 exp)
  NP/DAPI (%) ave: 30.5618%
A/WSN/33 virus [4]; 25uM, ave of 9 values (3 exp)
  NP/DAPI (%) ave: 32.0683%
A/WSN/33 virus [4]; ave summary, 3.13%
  NP/DAPI (%) ave: 30.5534%
A/WSN/33 virus [4]; ave summary, 6.25%
  NP/DAPI (%) ave: 28.157%
A/WSN/33 virus [4]; ave summary, 12.50%
  NP/DAPI (%) ave: 30.5618%
A/WSN/33 virus [4]; ave summary, 25%
  NP/DAPI (%) ave: 32.0683%
[5]
  relative mRNA level of Nqo1 compared with 5-treated cells: significantly higher
[5]; virus + (PR8)
  NQO1 Canis lupus mRNA, ave: 1.527
  NQO1 Canis lupus mRNA, individual replicates: 1.793 and 1.729 and 1.393 and 1.933 and 1.0008 and 1.009 and 1.147 and 1.683 and 2.053
[5]; virus -
  NQO1 Canis lupus mRNA, ave: 1.333
  NQO1 Canis lupus mRNA, individual replicates: 1.179 and 1.391 and 1.475 and 1.419 and 1.382 and 1.189 and 1.372 and 1.36 and 1.235
[5]; without A/PR/8/34 virus, 12.5 μM, 24 h
  relative mRNA level of Nqo1 compared with DMSO: significantly upregulated
A/PR/8/34 virus [6]; 12h
  viral titer of culture media, ave: 24444.4
A/PR/8/34 virus [6]; 48h
  viral titer of culture media, ave: 41111.1
A/PR/8/34 virus [6]; 72h
  viral titer of culture media, ave: 58888.9
[7]; virus +
  MDCK IFN-b mRNA, ave: 5.577
  MDCK IFN-b mRNA, individual replicates: 1.734 and 10.09 and 8.268 and 12.9454 and 4.2 and 4.194 and 4.358 and 1.919 and 2.486
[7]; virus -
  MDCK IFN-b mRNA, ave: 2.313
  MDCK IFN-b mRNA, individual replicates: 0.5929 and 0.6599 and 7.314 and 8.038 and 1.086 and 0.609 and 1.136 and 0.5738 and 0.8068
A/PR/8/34 virus [8]; average of 3 experiments
  NP/b-actin ave: 0.58
  NS1/b-actin ave: 0.5288
A/PR/8/34 virus [8]; single experiment
  NP mean (western blot signal intensity, ImageJ): 62.433 and 67.763 and 96.513
  NP/b-actin: 0.7275 and 0.4304 and 0.582
  NS1/b-actin: 0.4321 and 0.5028 and 0.6516
  NS1 mean (western blot signal intensity, ImageJ): 72.927 and 75.866 and 57.321
Nrf2; 12.5 μM, 24 h, MDCK cells
  Nrf2 activation (reporter assay) in contrast to DMSO: induced
Nrf2; 12.5uM, relative to DMSO trans+, ave of #1-3 exp
  pNQO1-ARE-Luc NRF2 reporter assay, ave: 1.319
Nrf2; 12.5uM, relative to DMSO trans+, two values each of #1, #2, #3 exp, listed as Cyclobakuchiol B
  pNQO1-ARE-Luc NRF2 reporter assay, individual replicates: 1.305 and 0.9752 and 1.512 and 1.4747 and 1.32 and 1.325
